Data set [1] is described as follows: Molar enthalpy of transition or fusion. Conditions: DSC.
For data set [2] the following is noted: DTA.

This is an account of results in the NIST ThermoML archive (doi:10.1016/j.tca.2011.12.010).

± gives the expanded uncertainty stated by the source.

`O=[N+]([O-])[O-].O=[N+]([O-])[O-].O=[N+]([O-])[O-].O=[N+]([O-])[O-].[K+].[K+].[Mg+2]` [bis-potassium magnesium nitrate]: the “Molar enthalpy of transition or fusion” value is 4.95 ± 0.151 kcal/mol in data set [1] (Crystal 1) and 0.648 ± 0.0478 kcal/mol in data set [1] (Crystal 2). The Triple point temperature in data set [2] (Crystal 1) amounted to 468.85 ± 0.5 K; in data set [2] (Crystal 2), 404.8 ± 0.5 K.
